Laboratory results reported in US20090286862A1, “Therapeutic agent for psychoneurotic disease” (ONO PHARMACEUTICAL CO., LTD., priority 2004, published 2009).
Structures can show the parent of a compound that is named as a salt.

Columns and labels:
Assay type in all cases: in vivo
[1] = test system: corticosterone elevation evoked by administration of sulprostone; test: Inhibitory activity for corticosterone elevation evoked by administration of sulprostone; conditions: Male CD (SD) IGS rat; 10 mg/kg orally 1 hour before sulprostone 0.3 mg/kg subcutaneously; blood 1 hour after
Description: Inhibitory Activity for Corticosterone Elevation Evoked by Administration of Sulprostone
Male CD (SD) IGS rat were orally administrated EP3 antagonist [compound (I), compound (II) and compound (III) (respectively, 10 mg/5 mL/kg (0.5% methylcellulose suspension))], the control group were orally administrated 0.5% methylcellulose suspension (5 mL/kg). After being administered for an hour, all groups were administered sulprostone subcutaneously (0.3 mg/4 mL/kg). In contrast, non-evoked group were orally administrated 0.5% methylcellulose suspension (5 mL/kg), and after being administered for an hour, administered physiological saline subcutaneously (4 mL/kg). After 1 hour from subcutaneous administration, rats of all groups were collected blood. The withdrawn blood was added EDTA and aprotinin, centrifuged (12,000 rpm, 3 minutes), and measured the corticosterone concentration in the supernatant by using the method of EIA (Bachem Inc.) or ELISA (Endocrine Technologies Inc.).

olfactory bulbectomy rat [2] = test: Elevated plus-maze in olfactory bulbectomy rat (antianxiety effect); conditions: for antianxiety effect: elevated plus-maze
From the text: (§1) Antidepressant Effect and Antianxiety Effect for Olfactory Bulbectomy Rat
(§2) Male Wistar rat was anesthetized by injection of pentobarbital sodium, and fixed the head on a brain positioner. Either side of the bulbus olfactorius region of the head was drilled a hole with dental drill after the scalp incision. The either side of the bulbus olfactorius was aspirated and removed with an aspirator and then, the head was stitched up the scalp. The rat was defined as an olfactory bulbectomy animal. Alternatively, a sham surgery animal was anesthetized, fixed the brain, incised the scalp as well as the olfactory bulbectomy animal. The either side of the bulbus olfactorius region of the head was drilled a hole, and the either side of the bulbus olfactorius was not aspirated and removed and then, the head was stitched up the scalp. The olfactory bulbectomy animals were bred with isolated alone. In contrast, the sham surgery animals were not bred with isolated alone.
Furthermore, each the olfactory bulbectomy animals and the sham surgery animals administered the compound (I) of the present invention, desipramine hydrochloride or control were located the center of platform toward the open arms on the elevated plus-maze for 10 minutes for the first dosage one hour later of the eighth day, and it was measured within a 5 minutes period. Each the time (second) in the open arms and the close arms were measured with video-imaging behavioral analysis equipment.

olfactory bulbectomy rat [3] = test: Score of emotional responses in olfactory bulbectomy rat (antidepressant effect); conditions: for score of emotional responses: seventh day, Male Wistar olfactory bulbectomy rat, 10 mg/kg orally twice a day for 7 days, control group 20.1±0.7, sham 3.7±3.4
From the text: as §1, §2
The olfactory bulbectomy animals were orally administered each the compound (I) of the present invention (10 mg/kg), the compound as positive control (desipramine hydrochloride (10 mg/kg); Wako Pure Chemical Industries, Ltd.), and control (0.5% methylcellulose suspension (5 mL/kg)) twice a day for 7 days. At that time, reactivity of emotional responses for 10 minutes for the first dosage one hour later of the first day and the seventh day was marked in accordance with an evaluation standard based on Gomi's method (Gomitami, other four people, Japanese pharmacologic magazine, 1983, Vol. 82, p 267-292).

Structure (SMILES): Cc1cc(C)cc([C@@H](CC(C)C)NC(=O)c2cc(COc3cc(F)ccc3C)ccc2CCC(=O)O)c1 [compound (I), 3-(2-((((1R)-1-(3,5-dimethylphenyl)-3-methylbutyl)amino)carbonyl)-4-(5-fluoro-2-methylphenoxymethyl)phenyl)propanoic acid]
- corticosterone elevation (corticosterone concentration in blood) [1]: inhibited
- time in the open arms on the elevated plus-maze (olfactory bulbectomy rat [2]; eighth day, 1 hour after first dosage, 5 minutes period, FIG. 3): improved significantly
- antianxiety effect (olfactory bulbectomy rat [2]): has antianxiety effect
- antidepressant effect (olfactory bulbectomy rat [3]; olfactory bulbectomy rat): has antidepressant effect
- score of emotional responses (in words) (olfactory bulbectomy rat [3]; olfactory bulbectomy rat, 10 mg/kg orally twice a day, FIG. 2): decreased significantly
- score of emotional responses (olfactory bulbectomy rat [3]): 6.2±4.6

Structure (SMILES): Cc1cc(C)cc([C@@H](CC(C)C)NC(=O)c2cc(COc3cc(F)ccc3F)ccc2CCC(=O)O)c1 [compound (II), 3-(2-(((1R)-3-methyl-1-(3,5-dimethylphenyl)butyl)carbamoyl)-4-(2,5-difluorophenoxymethyl)phenyl)propanoic acid]
- corticosterone elevation (corticosterone concentration in blood) [1]: inhibited
- antianxiety effect (olfactory bulbectomy rat [2]): equivalent effect
- antidepressant effect (olfactory bulbectomy rat [3]; olfactory bulbectomy rat): equivalent effect

Structure (SMILES): Cc1cc(C)cc([C@@H](CC(C)C)NC(=O)c2cc(COc3cc(C)ccc3C)ccc2CCC(=O)O)c1 [compound (III), 3-(2-(((1R)-3-methyl-1-(3,5-dimethylphenyl)butyl)carbamoyl)-4-(2,5-dimethylphenoxymethyl)phenyl)propanoic acid]
- corticosterone elevation (corticosterone concentration in blood) [1]: inhibited
- antianxiety effect (olfactory bulbectomy rat [2]): equivalent effect
- antidepressant effect (olfactory bulbectomy rat [3]; olfactory bulbectomy rat): equivalent effect

Structure (SMILES): CNCCCN1c2ccccc2CCc2ccccc21 [desipramine hydrochloride, reference compound]
- effective daily dosage in olfactory bulbectomy rat (olfactory bulbectomy rat [3]; olfactory bulbectomy rat, oral): 20 mg/kg per day
- score of emotional responses (olfactory bulbectomy rat [3]): 7.5±3.4
